Tested on: recombinant NL4-3 virus (Renilla luciferase in nef, Gag P373S; NLRluc) in MT-2 cells
Assay: whole plant or invertebrate
Type: cell-based, HIV
Details: Renilla, NL43, luciferase activity in cells infected for 4-5 days with NLRluc recombinants, serial dilutions of inhibitor; class symbols (key in Table 1); read-out: EC50
Method in brief: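 First, reporter virus was generated in 293T cells and titered on MT-2 cells. Next, MT-2 cells were infected in the presence of serial compound dilutions for 4-5 days. Finally, cells were lysed and luciferase activity was measured to quantify inhibition.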

**Q.** For `C=C(C)[C@@H]1CC[C@]2(NCCS(=O)(=O)CCO)CC[C@]3(C)[C@H](CC[C@@H]4[C@@]5(C)CC=C(c6ccc(C(=O)O)cc6)C(C)(C)[C@@H]5CC[C@]43C)[C@@H]12` [Example 135, 4-((1R,3aS,5aR,5bR,7aR,11aS,11bR,13aR,13bR)-3a-(2-(2-hydroxyethylsulfonyl)ethylamino)-5a,5b,8,8,11a-pentamethyl-1-(prop-1-en-2-yl)-2,3,3a,4,5,5a,5b,6,7,7a,8,11,11a,11b,12,13,13a,13b-octadecahydro-1H-cyclopenta[a]chrysen-9-yl)benzoic acid], which EC50 is on record?
**A.** < 100 nM

**Q.** For `C=C(C)[C@@H]1CC[C@]2(NC(=O)CN3CCCCS3(=O)=O)CC[C@]3(C)[C@H](CC[C@@H]4[C@@]5(C)CC=C(c6ccc(C(=O)O)cc6)C(C)(C)[C@@H]5CC[C@]43C)[C@@H]12` [Example 117, benzoic acid, 4-[(1R,3aS,5aR,5bR,7aR,11aS,11bR,13aR,13bR)-2,3,3a,4,5,5a,5b,6,7,7a,8,11,11a,11b,12,13,13a,13b-octadecahydro-5a,5b,8,8,11a-pentamethyl-1-(1-methylethenyl)-3a-[[(tetrahydro-1,1-dioxido-2H-1,2-thiazin-2-yl)acetyl]amino]-1H-cyclopenta[a]chrysen-9-yl]], which EC50 is on record?
**A.** < 100 nM

**Q.** How did the EC50 turn out when `C=C(C)[C@@H]1CC[C@]2(NC(=O)N3CCCN(C(C)=O)CC3)CC[C@]3(C)[C@H](CC[C@@H]4[C@@]5(C)CC=C(c6ccc(C(=O)O)cc6)C(C)(C)[C@@H]5CC[C@]43C)[C@@H]12` [Example 35, 4-((1R,3aS,5aR,5bR,7aR,11aS,11bR,13aR,13bR)-3a-(4-acetyl-1,4-diazepane-1-carboxamido)-5a,5b,8,8,11a-pentamethyl-1-(prop-1-en-2-yl)-2,3,3a,4,5,5a,5b,6,7,7a,8,11,11a,11b,12,13,13a,13b-octadecahydro-1H-cyclopenta[a]chrysen-9-yl)benzoic acid] was run?
**A.** < 100 nM

**Q.** `C=C(C)[C@@H]1CC[C@]2(NC(=O)N[C@H](C)C(=O)O)CC[C@]3(C)[C@H](CC[C@@H]4[C@@]5(C)CC=C(c6ccc(C(=O)O)cc6)C(C)(C)[C@@H]5CC[C@]43C)[C@@H]12` [Example 19, 4-((1R,3aS,5aR,5bR,7aR,11aS,11bR,13aR,13bR)-3a-(3-((R)-1-carboxyethyl)ureido)-5a,5b,8,8,11a-pentamethyl-1-(prop-1-en-2-yl)-2,3,3a,4,5,5a,5b,6,7,7a,8,11,11a,11b,12,13,13a,13b-octadecahydro-1H-cyclopenta[a]chrysen-9-yl)benzoic acid] was tested. Which EC50 did it give?
**A.** < 100 nM

**Q.** For `CC(C)[C@@H]1CC[C@]2(NCCN3CCS(=O)(=O)CC3)CC[C@]3(C)[C@H](CC[C@@H]4[C@@]5(C)CC[C@H](c6ccc(C(=O)O)cc6)C(C)(C)[C@@H]5CC[C@]43C)[C@@H]12` [Example B2, 4-((1S,3aS,5aR,5bR,7aS,9S,11aS,11bR,13aR,13bR)-3a-((2-(1,1-dioxidothiomorpholino)ethyl)amino)-1-isopropyl-5a,5b,8,8,11a-pentamethylicosahydro-1H-cyclopenta[a]chrysen-9-yl)benzoic acid], which EC50 is on record?
**A.** < 100 nM

**Q.** With `C=C(C)[C@@H]1CC[C@]2(NCCNc3ccccc3)CC[C@]3(C)[C@H](CC[C@@H]4[C@@]5(C)CC=C(c6ccc(C(=O)O)cc6)C(C)(C)[C@@H]5CC[C@]43C)[C@@H]12` [Example 192, 4-((1R,3aS,5aR,5bR,7aR,11aS,11bR,13aR,13bR)-5a,5b,8,8,11a-pentamethyl-3a-(2-(phenylamino)ethylamino)-1-(prop-1-en-2-yl)-2,3,3a,4,5,5a,5b,6,7,7a,8,11,11a,11b,12,13,13a,13b-octadecahydro-1H-cyclopenta[a]chrysen-9-yl)benzoic acid] as the molecule, how does the EC50 read?
**A.** < 100 nM

**Q.** With `C=C(C)[C@@H]1CC[C@]2(NC(=O)OCCN3CCS(=O)(=O)CC3)CC[C@]3(C)[C@H](CC[C@@H]4[C@@]5(C)CC=C(c6ccc(C(=O)O)cc6)C(C)(C)[C@@H]5CC[C@]43C)[C@@H]12` [Example 71, benzoic acid, 4-[(1R,3aS,5aR,5bR,7aR,11aS,11bR,13aR,13bR)-3a-[[[2-(1,1-dioxido-4-thiomorpholinyl)ethoxy]carbonyl]amino]-2,3,3a,4,5,5a,5b,6,7,7a,8,11,11a,11b,12,13,13a,13b-octadecahydro-5a,5b,8,8,11a-pentamethyl-1-(1-methylethenyl)-1H-cyclopenta[a]chrysen-9-yl]] as the molecule, how does the EC50 read?
**A.** < 100 nM

**Q.** Which EC50 does the source give for `C=C(C)[C@@H]1CC[C@]2(NCCN3CCN(C)CC3)CC[C@]3(C)[C@H](CC[C@@H]4[C@@]5(C)CC=C(c6ccc(C(=O)O)cc6)C(C)(C)[C@@H]5CC[C@]43C)[C@@H]12` [Example B28, 4-((1R,3aS,5aR,5bR,7aR,11aS,11bR,13aR,13bR)-5a,5b,8,8,11a-pentamethyl-3a-((2-(4-methylpiperazin-1-yl)ethyl)amino)-1-(prop-1-en-2-yl)-2,3,3a,4,5,5a,5b,6,7,7a,8,11,11a,11b,12,13,13a,13b-octadecahydro-1H-cyclopenta[a]chrysen-9-yl)benzoic acid] here?
**A.** < 100 nM

**Q.** For `C=C(C)[C@@H]1CC[C@]2(NCCN3CCN(C(=O)C(=O)N4CCCCC4)CC3)CC[C@]3(C)[C@H](CC[C@@H]4[C@@]5(C)CC=C(c6ccc(C(=O)O)cc6)C(C)(C)[C@@H]5CC[C@]43C)[C@@H]12` [Example B29, 4-((1R,3aS,5aR,5bR,7aR,11aS,11bR,13aR,13bR)-5a,5b,8,8,11a-pentamethyl-3a-((2-(4-(2-oxo-2-(piperidin-1-yl)acetyl)piperazin-1-yl)ethyl)amino)-1-(prop-1-en-2-yl)-2,3,3a,4,5,5a,5b,6,7,7a,8,11,11a,11b,12,13,13a,13b-octadecahydro-1H-cyclopenta[a]chrysen-9-yl)benzoic acid], which EC50 is on record?
**A.** < 100 nM

**Q.** With `C=C(C)[C@@H]1CC[C@]2(NCCN)CC[C@]3(C)[C@H](CC[C@@H]4[C@@]5(C)CC=C(c6ccc(C(=O)O)cc6)C(C)(C)[C@@H]5CC[C@]43C)[C@@H]12` [Example 139, 4-((1R,3aS,5aR,5bR,7aR,11aS,11bR,13aR,13bR)-3a-(2-aminoethylamino)-5a,5b,8,8,11a-pentamethyl-1-(prop-1-en-2-yl)-2,3,3a,4,5,5a,5b,6,7,7a,8,11,11a,11b,12,13,13a,13b-octadecahydro-1H-cyclopenta[a]chrysen-9-yl)benzoic acid] as the molecule, how does the EC50 read?
**A.** < 100 nM

**Q.** With `C=C(C)[C@@H]1CC[C@]2(NCC(=O)N(C)C)CC[C@]3(C)[C@H](CC[C@@H]4[C@@]5(C)CC=C(c6ccc(C(=O)O)cc6)C(C)(C)[C@@H]5CC[C@]43C)[C@@H]12` [Example 145, 4-((1R,3aS,5aR,5bR,7aR,11aS,11bR,13aR,13bR)-3a-(2-(dimethylamino)-2-oxoethylamino)-5a,5b,8,8,11a-pentamethyl-1-(prop-1-en-2-yl)-2,3,3a,4,5,5a,5b,6,7,7a,8,11,11a,11b,12,13,13a,13b-octadecahydro-1H-cyclopenta[a]chrysen-9-yl)benzoic acid] as the molecule, how does the EC50 read?
**A.** < 100 nM

**Q.** Which EC50 does the source give for `C=C(C)[C@@H]1CC[C@]2(NCCN3CCN(C(=O)C(=O)N(C)C)CC3)CC[C@]3(C)[C@H](CC[C@@H]4[C@@]5(C)CC=C(c6ccc(C(=O)O)cc6)C(C)(C)[C@@H]5CC[C@]43C)[C@@H]12` [Example B25, 4-((1R,3aS,5aR,5bR,7aR,11aS,11bR,13aR,13bR)-3a-((2-(4-(2-(dimethylamino)-2-oxoacetyl)piperazin-1-yl)ethyl)amino)-5a,5b,8,8,11a-pentamethyl-1-(prop-1-en-2-yl)-2,3,3a,4,5,5a,5b,6,7,7a,8,11,11a,11b,12,13,13a,13b-octadecahydro-1H-cyclopenta[a]chrysen-9-yl)benzoic acid] here?
**A.** < 100 nM

**Q.** `C=C(C)[C@@H]1CC[C@]2(NC(=O)C(CC)NC3CCS(=O)(=O)C3)CC[C@]3(C)[C@H](CC[C@@H]4[C@@]5(C)CC=C(c6ccc(C(=O)O)cc6)C(C)(C)[C@@H]5CC[C@]43C)[C@@H]12` (stereo partly drawn) [Example 116, benzoic acid, 4-[(1R,3aS,5aR,5bR,7aR,11aS,11bR,13aR,13bR)-2,3,3a,4,5,5a,5b,6,7,7a,8,11,11a,11b,12,13,13a,13b-octadecahydro-5a,5b,8,8,11a-pentamethyl-1-(1-methylethenyl)-3a-[[1-oxo-2-[(tetrahydro-1,1-dioxido-3-thienyl)amino]butyl]amino]-1H-cyclopenta[a]chrysen-9-yl]] was tested. Which EC50 did it give?
**A.** < 100 nM

Same assay, conditions: Renilla, NL43, luciferase activity in cells infected for 4-5 days with NLRluc recombinants, serial dilutions of inhibitor; numeric values; read-out: EC50

**Q.** Which EC50 does the source give for `C=C(C)[C@@H]1CC[C@]2(NC(=O)N3CCN([C@@H]4COC[C@H]4N(C)C)CC3)CC[C@]3(C)[C@H](CC[C@@H]4[C@@]5(C)CC=C(c6ccc(C(=O)O)cc6)C(C)(C)[C@@H]5CC[C@]43C)[C@@H]12` [Example 9, 4-((1R,3aS,5aR,5bR,7aR,11aS,11bR,13aR,13bR)-3a-(4-((3S,4S)-4-(dimethylamino)tetrahydrofuran-3-yl)piperazine-1-carboxamido)-5a,5b,8,8,11a-pentamethyl-1-(prop-1-en-2-yl)-2,3,3a,4,5,5a,5b,6,7,7a,8,11,11a,11b,12,13,13a,13b-octadecahydro-1H-cyclopenta[a]chrysen-9-yl)benzoic acid] here?
**A.** 3 nM

**Q.** For `C=C(C)[C@@H]1CC[C@]2(NC(=O)N(C)C)CC[C@]3(C)[C@H](CC[C@@H]4[C@@]5(C)CC=C(c6ccc(C(=O)O)cc6)C(C)(C)[C@@H]5CC[C@]43C)[C@@H]12` [Example 32, 4-((1R,3aS,5aR,5bR,7aR,11aS,11bR,13aR,13bR)-3a-(3,3-dimethylureido)-5a,5b,8,8,11a-pentamethyl-1-(prop-1-en-2-yl)-2,3,3a,4,5,5a,5b,6,7,7a,8,11,11a,11b,12,13,13a,13b-octadecahydro-1H-cyclopenta[a]chrysen-9-yl)benzoic acid], which EC50 is on record?
**A.** 10 nM
